Test results taken from patent publication US20130123386A1, “HINDERED PRIMARY CHLORINATED AMINE IN A LATEX FORMULATION” (ROHM AND HAAS COMPANY, priority 2011, published 2013).

Assays:
[1] = tested on: standard industrial inoculum; assay: Preservative efficacy (challenge) testing of latex binder samples, growth rating of streaked TSA plates; type: cell-based
Protocol: The samples prepared in accordance with Examples 1-4 and Comparative Example 1 were subjected to preservative efficacy testing in accordance with the following procedure:
A 1-g aliquot was removed from each sample and submitted for biocide analysis by a standard HPLC procedure to check the amount of isothiazolone microbicide dosed. The samples were then dosed with the standard industrial inoculum at a level of 0.1 mL/10 g.
All bacteria and yeast were stored at −70° C. to −80° C. in broth and glycerol (15%) prior to inoculum preparation. Molds were maintained on potato dextrose agar (PDA) plates at 2-5° C. The bacteria and yeast cultures were thawed and 0.1-mL aliquots of each were transferred into separate 10-mL aliquots of tryptic soy broth (TSB). These cultures were incubated at 30° C. for 18-24 h, with shaking at 150-200 rpm.
A volume of 10 mL of sterile phosphate buffer was measured out. The two mold strains were added by wetting sterile swabs in phosphate buffer, or water, and then rolling the swabs over the molds, covering an area of approximately 1 in^2 on each plate. The mold-covered swabs were then immersed in the 10 mL of phosphate buffer and agitated to suspend the spores. A volume of 0.1 mL of each bacterial culture, and a volume of 1 mL of each yeast culture, was then added to the mold mixture. The inoculum was blended by vortexing briefly. The organisms used in the inoculum and their corresponding American Type Culture Collection numbers (ATCC #) are shown in Table 1.
Samples were inverted several times to mix in the microorganisms. This inoculation challenged each test sample with 10^6-10^7 colony forming units/mL latex. Using a 10-μL sterile loop, latex samples were streaked onto tryptic soy agar (TSA) plates. This procedure was carried at t=0 and at several other time points during the first ˜5 h of the experiment to obtain speed-of-kill data. Additional time points were taken at t=1, 2 and 7 days. Between time points, all samples were stored at 30° C. In addition, all streaked TSA plates were incubated at 30° C. […]

[2] = Heat aging of amine/latex binder preparation at 50° C. for 14 days, concentration by GC; type: physicochemical; conditions: latex binder
Protocol: A 20.0-g dispersion of N-chloro-2,4,4-trimethylpentan-2-amine, 18% sodium lauryl sulfate, and water (C1-TOA, 0.47 g; SLS, 1.29 g; H2O, 18.24.g) with a particle size in the range of 100 to 850 nm was added to a butyl acrylate/methyl methacrylate/methacrylic acid latex binder (180 g; 50/49/1 percentages by weight) stabilized by SLS (1 weight percent) and Disponil FES 32 emulsifier (1 weight percent). The Cl-TOA/binder preparation was heat aged at 50° C. for 14 days. The concentration of Cl-TOA prior to the heat aging step was 2350 ppm (14 mM). The concentration of Cl-TOA after the heat-aging step was measured by GC to be ˜160 ppm based on the volume of the binder.
The procedures were carried out substantially as described for Example 1 except that, after heat-aging, a diluted sample of KATHON™ LX Microbicide Concentrate (A Trademark of The Dow Chemical Company or Its Affiliates) was mixed in with the binder/Cl-TOA preparation by shaking the samples at 200 rpm for 20 min, giving a final dosage of ˜5 ppm active. The concentration of Cl-TOA after the heat-aging step was measured by GC to be ˜160 ppm based on the volume of the binder.
The procedure of Example 2 was repeated except that the constituents of the added dispersion were Cl-TOA (0.19 g), SLS (0.52 g), and water (19.29 g). The concentration of Cl-TOA after the heat-aging step was estimated to be ˜65 ppm based on the volume of the binder.
(TOA, 0.38 g; SLS, 1.06 g; H2O, 18.56 g) with a particle size in the range of 100 to 850 nm was added to a butyl acrylate/methyl methacrylate/methacrylic acid latex binder (180 g; 50/49/1 percentages by weight) stabilized by SLS (1 weight percent) and Disponil FES 32 emulsifier (1 weight percent). The TOA/binder preparation was heat aged at 50° C. for 14 days. The concentration of TOA before heat aging was 1900 ppm (14 mM), and GC measurements indicated no change in TOA concentration as a result of heat aging. […]

| Concentration of Cl-TOA after the heat-aging step (estimated) ([2]; 940 ppm (6 mM) before heat aging, estimated, based on the volume of the binder (Example 3)) [ppm] | Concentration of Cl-TOA after the heat-aging step ([2]; 2350 ppm (14 mM) before heat aging, measured by GC, based on the volume of the binder (Examples 1 and 2)) [ppm] | Change in TOA concentration as a result of heat aging ([2]; 1900 ppm (14 mM) before heat aging, GC (Example 4)) | SMILES | Efficacy as a quick-kill preservative ([1]; alone or in combination with the KATHON LX Microbicide, heat-aged latex binder) | Biocidal activity ([1]; TOA itself) | Effect as an adjuvant for the biocide ([1]; with KATHON LX, compared to the microbiocide alone (Comp. Ex. 1)) |
| --- | --- | --- | --- | --- | --- | --- |
| ~65 | ~160 |  | CC(C)(C)CC(C)(C)NCl [Cl-TOA, N-chloro-2,4,4-trimethylpentan-2-amine] | effective |  |  |
|  |  | no change | CC(C)(C)CC(C)(C)N [TOA, 2,4,4-trimethylpentan-2-amine] |  | little or no biocidal activity | effective as an adjuvant |
